According to patent publication US12492337B2, “Fluorescent probe, preparation method therefor and use thereof” (FLUORESCENCE DIAGNOSIS (SHANGHAI) BIOTECH COMPANY, priority 2017, dated 2025):

How the values were obtained:
Hela-WT cells = experiment: Confocal imaging of Hela-WT cells without protein tag (Example 89); assay type: cell-based; conditions: 5 μM probe, 2 hours, 37° C., confocal microscope
Procedure: (§1) Hela cells are used as an example to test the labeling effect of compounds in mammalian cells. Hela cells and Hela-WT cells (Hela primitive cell, without a protein tag expressed) stably expressing HaloTag protein tags were planted in 14 mm 96-well glass bottom cell culture plates and stabilized for 10 hours. Probe 57, probe 59, probe 60, probe 61, probe 69, probe 75, probe 76, probe 82 were added to the culture medium and diluted to 5 μM, respectively. The cells were incubated in a 37° C. carbon dioxide incubator for 2 hours, and the fluorescence changes of the labeled cells were detected by imaging with a Leica TPS-8 confocal microscope.

[1] = system: fusion protein CX43-HaloTag; experiment: Tracing assembly of CX43-HaloTag intercellular channels in Hela cells (Example 94); assay type: cell-based; conditions: 1 μM probe added after labeling with probe 61 and washing
Source text: To verify that the probe can be used to monitor the assembly and degradation of biomacromolecules in mammalian cells in real time, Hela cells were used as an example to detect the process of tracing, by a probe, the assembly of intercellular protein CX43 to form intercellular channels in mammalian cells. The C-terminus of CX43 gene was fused with HaloTag gene, and a Hela cell line stably expressing the fusion protein CX43-HaloTag was constructed and obtained by lentiviral infection technology. Hela-CX43-HaloTag cell lines were implanted in a 20 mm glass-bottom cell culture dish 10 hours before the probe labeling. When labeling, the probe 61 μM was first diluted to 2 μM with phenol red-free DMEM medium and replaced the original cell culture medium. The cells were incubated in a 37° C. carbon dioxide incubator for 1 hour. Thereafter, the cells were washed twice with fresh phenol red-free DMEM medium, and the unbound probe 61 was removed at intervals of 2 min. Then, a DMEM phenol-free medium containing 1 μM probe 57 was added to label the cells, and a Leica SP8 confocal microscope was used to monitor the fluorescence intensity and position changes of labeled cells at the corresponding fluorescence channels of probe 61 and probe 57 for a long time, which are shown in FIGS. 17A and 17B, respectively. […]

[2] = Quantum yield of free probe not reacted with protein tag; assay type: physicochemical
Procedure: (§2) A probe was mixed with a corresponding HaloTag protein tag to obtain a mixed sample. The final concentration of the probe in the mixed sample was 5 μM and the final concentration of the protein tag was 10 μM. The mixed sample was incubated at 37° C. for 1 hour, and the sample was detected using a fluorescence spectrophotometer.

[3] = system: HaloTag protein tags in different subcellular organelles of Hela cells; experiment: Labeling HaloTag protein tags in different subcellular organelles of Hela cells (Example 90); assay type: cell-based; conditions: 0.2 μM probe, 2 hours, no washing; cytoskeleton, mitochondria, nucleus, Golgi, whole cells, lysosomes
Procedure: In order to verify that probe 57, probe 59, probe 60, probe 61, probe 62, and probe 63 can be used to label target proteins located in different organelles. Hela cells were used as examples to detect the effect of probes on labeling HaloTag protein tags in different subcellular organelles. Hela cells were implanted 5000 cells per well in 96-well glass-bottom cell culture plates. After 14 hours, lipo2000 kit was used to transfect the plasmids localized by HaloTag protein tags in different organelles. The original culture medium was removed 24 hours after transfection, and the cells were washed twice with a phenol red-free DMEM medium, and incubated for 2 hours in a phenol red-free medium containing 0.2 μM probes, and the effect of cell labelling was detected by imaging using a Leica TCS-8 confocal microscope.

[4] = system: Hela cells stably expressing HaloTag protein tags; experiment: Confocal imaging of labeled Hela cells stably expressing HaloTag protein tags (Example 89); assay type: cell-based; conditions: Homo sapiens, 5 μM probe, 2 hours, 37° C., confocal microscope, read-out: fluorescence signal enhancement in Hela cells expressing the protein tag
Procedure: as §1

[5] = Viscosity responsiveness: fluorescence intensity in glycerol versus methanol; assay type: physicochemical; conditions: fluorescence intensity in glycerol to that in methanol
Procedure: The above-mentioned viscosity-responsive fluorescent dye means that the fluorescence intensity of the dye responds to the viscosity of the solution. As the viscosity of the solution increases, the fluorescence intensity increases. Optionally, the viscosity-responsive fluorescent dye is an organic dye molecule which, under the same concentration and excitation wavelength, at 25° C. has a ratio • of the maximum fluorescence emission intensity of the dye in glycerol to the fluorescence intensity in methanol of greater than 2, optionally greater than 5, optionally greater than 10. The concentration of the viscosity-responsive dye ranges from 1×10^−7 M to 1×10^−5 M.

HaloTag protein tag = experiment: Probe mixed with HaloTag protein tag, fluorescence spectrophotometer (Example 86); assay type: biochemical; conditions: 5 μM probe, 10 μM protein tag, 37° C., 1 hour; for Fluorescence enhancement: fluorescence activation multiple after binding protein tag; for Emission/nm: fluorescence emission wavelength
Procedure: as §2

[6] = system: HaloTag protein tag expressed in the liver; experiment: Labeling of HaloTag protein tag expressed in mouse liver, in vivo imaging system (Example 92); set-up: species or system mice; conditions: 0.4 μM probe in 200 ul PBS via tail vein, 6 hours later
Procedure: First, a plasmid pcdna3.1-HaloTag (sample group) expressing the HaloTag protein tag and a control plasmid pcdna3.1-CAT (control group) not expressing the HaloTag protein tag were introduced into mice. This method is to dissolve the plasmid in a large volume of solution and inject it into mice quickly through tail vein injection. The mouse liver absorbs DNA and then expresses the target protein. 20 hours after the plasmid injection, 0.4 μM probe 77 dissolved in 200 ul of PBS was injected into the mice via tail vein injection to label the HaloTag protein tag; 6 hours later, the mice were dissected out, and the fluorescence differences in the liver parts of different mouse samples were detected by KODAK multi-spectral in vivo imaging system.
The fluorescence of the liver of the control plasmid pcdna3.1-CAT injected with the probe 77 was very low, which was close to the background fluorescence level of the blank liver without the probe injected, and the liver of the HaloTag plasmid pcdna3.1-HaloTag injected with the probe 77 had strong fluorescence, and the signal intensity was more than 20 times that of the control group.

Structure (SMILES)	fluorescent signal in Hela-WT cells (Hela-WT cells)	fluorescent signal in the probe 57 channel when just added [1]	The quantum yield of the free probe [2]	effect of cell labelling of subcellular organelles [3]	fold induction at 5 µM [4]	ratio [5]	The quantum yield after binding to Halo-tag (HaloTag protein tag)	Fluorescence enhancement (HaloTag protein tag)	Emission/nm (HaloTag protein tag)	liver fluorescence signal intensity relative to the control group ([6]; mice with pcdna3.1-HaloTag)	fluorescence of the liver of control plasmid pcdna3.1-CAT mice ([6]; mice without HaloTag expression)
CN(C)c1ccc(/C=C(\C#N)C(=O)NCCOCCOCCCCCCCl)cc1 [Probe 57]	no corresponding fluorescent signal could be detected	fluorescent signal could not be detected	<0.001	clearly display a variety of subcellular organelle structures without washing	~200	762	0.56	1026	480 nm	–	–
N#C/C(=C\c1cc2c3c(c1)CCCN3CCC2)C(=O)NCCOCCOCCCCCCCl [Probe 59]	no corresponding fluorescent signal could be detected	–	<0.001	clearly display a variety of subcellular organelle structures without washing	~200	370	0.45	498	500 nm	–	–
CN1CCSc2cc(/C=C(\C#N)C(=O)NCCOCCOCCCCCCCl)ccc21 [Probe 60]	no corresponding fluorescent signal could be detected	–	0.0011	clearly display a variety of subcellular organelle structures without washing	~200	1199	0.65	751	520 nm	–	–
CN(C)c1ccc2nc(/C=C(\C#N)C(=O)NCCOCCOCCCCCCCl)ccc2c1 [Probe 62]	–	–	<0.001	clearly display a variety of subcellular organelle structures without washing	–	711	0.57	592	590 nm	–	–
CN(C)c1ccc2cc(/C=C(\C#N)C(=O)NCCOCCOCCCCCCCl)sc2c1 [Probe 63]	–	–	0.0015	clearly display a variety of subcellular organelle structures without washing	–	531	0.70	486	570 nm	–	–
CN(C)c1ccc2nc(/C=C(\C#N)C(=O)NCCOCCOCCCCCCCl)oc2c1 [Probe 69]	no corresponding fluorescent signal could be detected	–	<0.001	–	~200	317	0.47	491	610 nm	–	–
CN(C)c1cc2sc3cc(/C=C(\C#N)C(=O)NCCOCCOCCCCCCCl)sc3c2s1 [Probe 75]	no corresponding fluorescent signal could be detected	–	0.0021	–	~200	500	0.56	589	620 nm	–	–
CN(C)c1cc2c(s1)-c1sc(/C=C(\C#N)C(=O)NCCOCCOCCCCCCCl)cc1C2(C)C [Probe 76]	no corresponding fluorescent signal could be detected	–	0.0011	–	~200	386	0.58	666	640 nm	–	–
CN(C)c1cc2c(s1)-c1sc(/C=C(\C#N)C(=O)OCCOCCOCCCCCCCl)cc1C2(C)C [Probe 77]	–	–	0.0014	–	–	479	0.53	721	652 nm	more than 20 times	very low
CN(C)c1cc2c(s1)-c1sc(/C=C3\SC(=S)N(CCOCCOCCCCCCCl)C3=O)cc1C2(C)C [Probe 79]	–	–	<0.001	–	–	498	0.51	419	725 nm	–	–
CN(C)c1ccc(-c2ccc(/C=C3\SC(=O)N(CCOCCOCCCCCCCl)C3=O)s2)s1 [Probe 81]	–	–	<0.001	–	–	521	0.40	563	743 nm	–	–
CN(C)c1cc2c(s1)-c1sc(/C=C(\C#N)C(=S)NCCOCCOCCCCCCCl)cc1C2(C)C [Probe 82]	no corresponding fluorescent signal could be detected	–	<0.001	–	~200	475	0.51	781	660 nm	–	–
CN(C)c1cc2c(s1)-c1sc(/C=C(\C#N)C(=S)NCCOCCOCCCCCCCl)cc1[Si]2(C)C [Probe 83]	–	–	<0.001	–	–	652	0.53	456	680 nm	–	–
CN(C)c1ccc(-c2ccc(/C=C(\C#N)C(=S)NCCOCCOCCCCCCCl)s2)s1 [Probe 84]	–	–	<0.001	–	–	522	0.47	431	680 nm	–	–
CN(C)c1ccc2c(c1)C(C)(C)c1cc(/C=C(\C#N)C(=O)NCCOCCOCCCCCCCl)sc1-2 [Probe 86]	–	–	0.0012	–	–	470	0.52	618	550 nm	–	–
